This passage reports survivin expression results from patent US11235043B2, “Vaccines against antigens involved in therapy resistance and methods of using same” (Duke University, priority 2012, dated 2022).

For the assay, the system named is 4T1-HER2 expressing tumors. The assay can be described thus: Survivin expression in the mouse 4T1-HER2 tumor model. In kind it is in vivo.

Each structure is given as a SMILES string.

Turning to `CS(=O)(=O)CCNCc1ccc(-c2ccc3ncnc(Nc4ccc(OCc5cccc(F)c5)c(Cl)c4)c3c2)o1` [lapatinib], the survivin expression result is listed as “no change in survivin expression”.
